The supplement of paper PMC10307832

Experiments:
Experiment in all cases: relative viability (nuclei count vs DMSO), 5 days (fraction); higher = more cells survive
NCI-H1755 = test system: NCI-H1755
Summary of the method: (§1)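 Each reported value is a median over duplicate plates. It expresses relative viability: treated-well nuclei count divided by vehicle-well nuclei count. Lung cancer cell lines in 1536-well plates were dosed by pin tool a day after seeding, alone with one drug or with a fixed anchor-drug dose plus five library-drug doses (not always all listed) in √10 steps, and nuclei were counted after 5 days.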

NCI-H1915 = test system: NCI-H1915
Summary of the method: as §1

NCI-H358 = test system: NCI-H358
Summary of the method: as §1

ABC-1 = test system: ABC-1
Summary of the method: as §1

NCI-H1993 = test system: NCI-H1993
Summary of the method: as §1

HOP-62 = test system: HOP-62
Summary of the method: as §1

NCI-H2023 = test system: NCI-H2023
Summary of the method: as §1

NCI-H1975 = test system: NCI-H1975
Summary of the method: as §1

CAL-12T = test system: CAL-12T
Summary of the method: as §1

NCI-H1666 = test system: NCI-H1666
Summary of the method: as §1

EPLC-272H = test system: EPLC-272H
Summary of the method: as §1

EMC-BAC-2 = test system: EMC-BAC-2
Summary of the method: as §1

HCC-78 = test system: HCC-78
Summary of the method: as §1

NCI-H2085 = test system: NCI-H2085
Summary of the method: as §1

NCI-H2126 = test system: NCI-H2126
Summary of the method: as §1

UMC-11 = test system: UMC-11
Summary of the method: as §1

LXF-289 = test system: LXF-289
Summary of the method: as §1

NCI-H3122 = test system: NCI-H3122
Summary of the method: as §1

NCI-H322M = test system: NCI-H322M
Summary of the method: as §1

COR-L 105 = test system: COR-L 105
Summary of the method: as §1

HCC-15 = test system: HCC-15
Summary of the method: as §1

NCI-H441 = test system: NCI-H441
Summary of the method: as §1

Structure (SMILES): COc1cc(N2CCC(C(N)=O)CC2)ccc1Nc1nc(N)c(Cl)c(Nc2ccccc2S(=O)(=O)C(C)C)n1 [HG-5-88-01] + Cc1nc(NC(=O)N2CCC[C@H]2C(N)=O)sc1-c1ccnc(C(C)(C)C(F)(F)F)c1 [Alpelisib] (partner 2 µM)
- relative viability (NCI-H1755; first compound 0.1265 µM): 0.938
- relative viability (NCI-H1755; first compound 0.4 µM): 0.912
- relative viability (NCI-H1755; first compound 1.265 µM): 0.897
- relative viability (NCI-H1755; first compound 4 µM): 1.05
- relative viability (NCI-H1915; first compound 0.04 µM): 1.08
- relative viability (NCI-H1915; first compound 0.1265 µM): 1.03
- relative viability (NCI-H1915; first compound 0.4 µM): 1.12
- relative viability (NCI-H1915; first compound 1.265 µM): 1.04
- relative viability (NCI-H1915; first compound 4 µM): 0.958
- relative viability (NCI-H358; first compound 0.04 µM): 0.845
- relative viability (NCI-H358; first compound 0.1265 µM): 0.692
- relative viability (NCI-H358; first compound 0.4 µM): 0.497
- relative viability (NCI-H358; first compound 1.265 µM): 0.432
- relative viability (NCI-H358; first compound 4 µM): 0.323
- relative viability (ABC-1; first compound 0.04 µM): 0.919
- relative viability (ABC-1; first compound 0.1265 µM): 0.885
- relative viability (ABC-1; first compound 0.4 µM): 0.855
- relative viability (ABC-1; first compound 1.265 µM): 0.713
- relative viability (ABC-1; first compound 4 µM): 0.993
- relative viability (NCI-H1993; first compound 0.04 µM): 0.709
- relative viability (NCI-H1993; first compound 0.1265 µM): 0.596
- relative viability (NCI-H1993; first compound 0.4 µM): 0.566
- relative viability (NCI-H1993; first compound 1.265 µM): 0.682
- relative viability (NCI-H1993; first compound 4 µM): 0.751
- relative viability (HOP-62; first compound 0.04 µM): 0.835
- relative viability (HOP-62; first compound 0.1265 µM): 0.924
- relative viability (HOP-62; first compound 0.4 µM): 0.999
- relative viability (HOP-62; first compound 1.265 µM): 0.981
- relative viability (HOP-62; first compound 4 µM): 1.41
- relative viability (NCI-H2023; first compound 0.04 µM): 0.659
- relative viability (NCI-H2023; first compound 0.1265 µM): 0.54
- relative viability (NCI-H2023; first compound 0.4 µM): 0.539
- relative viability (NCI-H2023; first compound 1.265 µM): 0.358
- relative viability (NCI-H2023; first compound 4 µM): 0.474
- relative viability (NCI-H1975; first compound 0.04 µM): 0.597
- relative viability (NCI-H1975; first compound 0.1265 µM): 0.62
- relative viability (NCI-H1975; first compound 0.4 µM): 0.555
- relative viability (NCI-H1975; first compound 1.265 µM): 0.516
- relative viability (NCI-H1975; first compound 4 µM): 0.264
- relative viability (CAL-12T; first compound 0.04 µM): 1.11
- relative viability (CAL-12T; first compound 0.1265 µM): 1.3
- relative viability (CAL-12T; first compound 0.4 µM): 1.19
- relative viability (CAL-12T; first compound 1.265 µM): 1.12
- relative viability (CAL-12T; first compound 4 µM): 0.874
- relative viability (NCI-H1666; first compound 0.04 µM): 1
- relative viability (NCI-H1666; first compound 0.1265 µM): 1.02
- relative viability (NCI-H1666; first compound 0.4 µM): 0.816
- relative viability (NCI-H1666; first compound 1.265 µM): 0.706
- relative viability (NCI-H1666; first compound 4 µM): 0.657
- relative viability (EPLC-272H; first compound 0.04 µM): 0.931
- relative viability (EPLC-272H; first compound 0.1265 µM): 0.838
- relative viability (EPLC-272H; first compound 0.4 µM): 1.12
- relative viability (EPLC-272H; first compound 1.265 µM): 0.804
- relative viability (EPLC-272H; first compound 4 µM): 0.253
- relative viability (EMC-BAC-2; first compound 0.04 µM): 0.729
- relative viability (EMC-BAC-2; first compound 0.1265 µM): 0.757
- relative viability (EMC-BAC-2; first compound 0.4 µM): 0.723
- relative viability (EMC-BAC-2; first compound 1.265 µM): 0.703
- relative viability (EMC-BAC-2; first compound 4 µM): 0.628
- relative viability (HCC-78; first compound 0.04 µM): 0.352
- relative viability (HCC-78; first compound 0.1265 µM): 0.304
- relative viability (HCC-78; first compound 0.4 µM): 0.263
- relative viability (HCC-78; first compound 1.265 µM): 0.207
- relative viability (HCC-78; first compound 4 µM): 0.241
- relative viability (NCI-H2085; first compound 0.04 µM): 1.05
- relative viability (NCI-H2085; first compound 0.1265 µM): 1
- relative viability (NCI-H2085; first compound 0.4 µM): 0.908
- relative viability (NCI-H2085; first compound 1.265 µM): 0.973
- relative viability (NCI-H2085; first compound 4 µM): 0.902
- relative viability (NCI-H2126; first compound 0.04 µM): 0.81
- relative viability (NCI-H2126; first compound 0.1265 µM): 0.79
- relative viability (NCI-H2126; first compound 0.4 µM): 0.774
- relative viability (NCI-H2126; first compound 1.265 µM): 0.681
- relative viability (NCI-H2126; first compound 4 µM): 0.716
- relative viability (UMC-11; first compound 0.04 µM): 1.01
- relative viability (UMC-11; first compound 0.1265 µM): 1
- relative viability (UMC-11; first compound 0.4 µM): 0.998
- relative viability (UMC-11; first compound 1.265 µM): 0.945
- relative viability (UMC-11; first compound 4 µM): 0.954
- relative viability (LXF-289; first compound 0.04 µM): 1.05
- relative viability (LXF-289; first compound 0.1265 µM): 1.04
- relative viability (LXF-289; first compound 0.4 µM): 1
- relative viability (LXF-289; first compound 1.265 µM): 1.08
- relative viability (LXF-289; first compound 4 µM): 0.968
- relative viability (NCI-H3122; first compound 0.04 µM): 0.624
- relative viability (NCI-H3122; first compound 0.1265 µM): 0.259
- relative viability (NCI-H3122; first compound 0.4 µM): 0.245
- relative viability (NCI-H3122; first compound 1.265 µM): 0.195
- relative viability (NCI-H3122; first compound 4 µM): 0.2
- relative viability (NCI-H322M; first compound 0.04 µM): 0.774
- relative viability (NCI-H322M; first compound 0.1265 µM): 0.841
- relative viability (NCI-H322M; first compound 0.4 µM): 0.903
- relative viability (NCI-H322M; first compound 1.265 µM): 0.726
- relative viability (NCI-H322M; first compound 4 µM): 0.639
- relative viability (COR-L 105; first compound 0.04 µM): 0.955
- relative viability (COR-L 105; first compound 0.1265 µM): 1.1
- relative viability (COR-L 105; first compound 0.4 µM): 0.971
- relative viability (COR-L 105; first compound 1.265 µM): 0.606
- relative viability (COR-L 105; first compound 4 µM): 0.711
- relative viability (HCC-15; first compound 0.04 µM): 0.925
- relative viability (HCC-15; first compound 0.1265 µM): 0.865
- relative viability (HCC-15; first compound 0.4 µM): 0.936
- relative viability (HCC-15; first compound 1.265 µM): 0.832
- relative viability (HCC-15; first compound 4 µM): 0.775
- relative viability (NCI-H441; first compound 0.04 µM): 0.752
- relative viability (NCI-H441; first compound 0.1265 µM): 0.77
- relative viability (NCI-H441; first compound 0.4 µM): 0.845
- relative viability (NCI-H441; first compound 1.265 µM): 0.84
- relative viability (NCI-H441; first compound 4 µM): 0.893
